From the NIST ThermoML archive (doi:10.1016/j.fluid.2013.08.005)
Where “and” joins values, the source holds several entries; their conditions need not be identical. Identical values can stand only once. ± gives the expanded uncertainty stated by the source.

What was measured:
[1] = mn = molality of the nth substance listed, in mol/kg; settings: 298.15 K; 101 kPa; Liquid; Alternating current cell with electrodes; m2 = 0
[2] = molar heat capacity at constant pressure; mn = molality of the nth substance listed, in mol/kg; settings: 101 kPa, Liquid, Large sample (1 g) DSC, m2 = 0
[3] = molar heat capacity at constant pressure; settings: 101 kPa, Liquid, Large sample (1 g) DSC

electrical conductivity [1] [S/m] | molar heat capacity at constant pressure ([2]; 298.15 K) [J/K/mol] | molar heat capacity at constant pressure ([2]; 303.15 K) [J/K/mol] | molar heat capacity at constant pressure ([2]; 308.15 K) [J/K/mol] | molar heat capacity at constant pressure ([2]; 313.15 K) [J/K/mol] | Structure (SMILES) | molar heat capacity at constant pressure ([3]; 298.15 K) | molar heat capacity at constant pressure ([3]; 303.15 K) | molar heat capacity at constant pressure ([3]; 308.15 K) | molar heat capacity at constant pressure ([3]; 313.15 K)
0.239 ± 0.0095 | 75.37 ± 1.3 | 75.34 ± 1.3 | 75.33 ± 1.3 | 75.34 ± 1.3 | O [water] + CCCCCC[N+](C)(C)C.[Br-] |  |  |  | 
 |  |  |  |  | O [water] | 75.37 ± 1.3 J/K/mol and 75.35 ± 1.3 J/K/mol | 75.34 ± 1.3 J/K/mol and 75.32 ± 1.3 J/K/mol | 75.33 ± 1.3 J/K/mol and 75.32 ± 1.3 J/K/mol | 75.34 ± 1.3 J/K/mol and 75.33 ± 1.3 J/K/mol
 | 75.35 ± 1.3 | 75.32 ± 1.3 | 75.32 ± 1.3 | 75.33 ± 1.3 | O [water] + CCCCCCCC[N+](C)(C)C.[Br-] |  |  |  | 
